Toxic doses and inconclusive results are not listed. Rule for the calls: active = survival T/C of 150% or more; inactive = T/C below 125% in these data.
Test system: P388 leukemia ip, CD2F1 mice, survival T/C
Experiment: NCI In Vivo Anticancer Drug Screen. Data for tumor model P388 Leukemia (intraperitoneal) in CD2F1 (CDF1) mice
Conditions: endpoint: median survival time, higher = longer survival
Summary of the method: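 Mice carrying the transplanted tumor received test compound or vehicle. Survival was recorded in each group, and the value is the treated-group measurement divided by that of the vehicle-treated control group.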

[1] = dose: 5.0 mg/kg/injection, schedule: Q01DX009 (ip), vehicle: saline with Tween-80
[2] = dose: 10.0 mg/kg/injection, schedule: Q01DX009 (ip), vehicle: saline with Tween-80
[3] = dose: 50.0 mg/kg/injection, schedule: Q01DX009 (ip), vehicle: saline with Tween-80
[4] = dose: 100.0 mg/kg/injection, schedule: Q01DX009 (ip), vehicle: saline with Tween-80
[5] = dose: 200.0 mg/kg/injection, schedule: Q01DX009 (ip), vehicle: saline with Tween-80
[6] = dose: 60.0 mg/kg/injection, schedule: Q01DX005 (ip), vehicle: saline
[7] = dose: 120.0 mg/kg/injection, schedule: Q01DX005 (ip), vehicle: saline
[8] = dose: 240.0 mg/kg/injection, schedule: Q01DX005 (ip), vehicle: saline
[9] = dose: 50.0 mg/kg/injection, schedule: Q01DX005 (ip), vehicle: saline with Tween-80
[10] = dose: 100.0 mg/kg/injection, schedule: Q01DX005 (ip), vehicle: saline with Tween-80
[11] = dose: 50.0 mg/kg/injection, schedule: Q01DX009 (ip), vehicle: saline
[12] = dose: 100.0 mg/kg/injection, schedule: Q01DX009 (ip), vehicle: saline
[13] = dose: 200.0 mg/kg/injection, schedule: Q01DX009 (ip), vehicle: saline

Measured: T/C

COc1cc(C/C=C/c2ccccc2)c(OC)cc1O
inactive: dose: 2.5 mg/kg/injection, schedule: Q01DX009 (ip), vehicle: saline with Tween-80 91 % of control | [1] 102 % of control | [2] 101 % of control

CCn1cnc2c(SC3CCCC3)ncnc21
inactive: dose: 100.0 mg/kg/injection, schedule: Q01DX009 (ip), vehicle: saline sonified 105 % of control | dose: 200.0 mg/kg/injection, schedule: Q01DX009 (ip), vehicle: saline sonified 110 % of control

COc1c2occc2c(N=Cc2ccncc2)c2ccc(=O)oc12
inactive: dose: 100.0 mg/kg/injection, schedule: Q01DX001 (ip), vehicle: saline with Tween-80 88 % of control | dose: 200.0 mg/kg/injection, schedule: Q01DX001 (ip), vehicle: saline with Tween-80 90 % of control | dose: 400.0 mg/kg/injection, schedule: Q01DX001 (ip), vehicle: saline with Tween-80 96 % of control

C=C1C(=O)O[C@H]2C[C@@H]3O[C@@H]3[C@@H]12
inactive: dose: 1.56 mg/kg/injection, schedule: Q01DX009 (ip), vehicle: water 98 % of control | dose: 3.13 mg/kg/injection, schedule: Q01DX009 (ip), vehicle: water 100 % of control | dose: 6.25 mg/kg/injection, schedule: Q01DX009 (ip), vehicle: water 100 % of control | dose: 12.5 mg/kg/injection, schedule: Q01DX009 (ip), vehicle: water 109 % of control

NC(=O)c1ccccc1OC(=O)NCCO
inactive: [3] 106 % of control | [4] 95 % of control | [5] 100 % of control

C=CCCNC(=S)S
inactive: [6] 109 % of control | [7] 107 % of control | [8] 108 % of control

CCC(c1ccc(OCC(=O)N(CCCl)CCCl)cc1)C(CC)c1ccc(OCC(=O)N(CCCl)CCCl)cc1 (stereo not drawn)
inactive: dose: 100.0 mg/kg/injection, schedule: Q04DX002 (ip), vehicle: suspension in saline 98 % of control | dose: 200.0 mg/kg/injection, schedule: Q04DX002 (ip), vehicle: suspension in saline 97 % of control | dose: 400.0 mg/kg/injection, schedule: Q04DX002 (ip), vehicle: suspension in saline 103 % of control

CCOC(=O)/C=C1/Nc2ccc(Cl)cc2NC1=O (tested in a mixture with another compound)
inactive: dose: 50.0 mg/kg/injection, schedule: Q01DX009 (ip), vehicle: distilled water + Tween-80 + alcohol 96 % of control | dose: 100.0 mg/kg/injection, schedule: Q01DX009 (ip), vehicle: distilled water + Tween-80 + alcohol 88 % of control | dose: 200.0 mg/kg/injection, schedule: Q01DX009 (ip), vehicle: distilled water + Tween-80 + alcohol 88 % of control

O=[N+]([O-])c1ccc2oc([N+](=O)[O-])cc2c1
inactive: dose: 50.0 mg/kg/injection, schedule: Q01DX005 (ip), vehicle: Klucel (hydroxypropylcellulose) (HPC) 101 % of control | dose: 100.0 mg/kg/injection, schedule: Q01DX005 (ip), vehicle: Klucel (hydroxypropylcellulose) (HPC) 100 % of control | dose: 200.0 mg/kg/injection, schedule: Q01DX005 (ip), vehicle: Klucel (hydroxypropylcellulose) (HPC) 101 % of control

O=C(/C=C/c1ccccc1O)c1ccccc1
inactive: [3] 97 % of control | [4] 102 % of control | [5] 108 % of control

O=Cc1cccc(S(=O)(=O)O)c1
inactive: [6] 100 % of control | [7] 94 % of control | [8] 102 % of control

CC(=N\[O-])/C(C)=N/O.CC(=N\[O-])/C(C)=N/O.CC(=O)[O-].CC(=O)[O-].O.[Rh+2].[Rh+2]
inactive: dose: 6.25 mg/kg/injection, schedule: Q01DX009 (ip), vehicle: saline with Tween-80 123 % of control | dose: 12.5 mg/kg/injection, schedule: Q01DX009 (ip), vehicle: saline with Tween-80 119 % of control

O=c1cn[nH]c(=O)[nH]1
inactive: dose: 62.5 mg/kg/injection, schedule: Q01DX010 (ip), vehicle: saline 100 % of control | dose: 125.0 mg/kg/injection, schedule: Q01DX010 (ip), vehicle: saline 91 % of control | dose: 250.0 mg/kg/injection, schedule: Q01DX010 (ip), vehicle: saline 91 % of control

COc1c(O)c(O)c2c(c1O)C(=O)c1cc(C)cc(O)c1C2=O
inactive: [1] 99 % of control | [2] 103 % of control | dose: 20.0 mg/kg/injection, schedule: Q01DX009 (ip), vehicle: saline with Tween-80 105 % of control

C/C(=N\NC(=S)Nc1ccc(C(=O)O)cc1)c1ccc2ccccc2n1
inactive: [9] 105 % of control | [10] 114 % of control

N#C/C(=C/c1ccc(Cl)cc1)C(=O)NC(N)=O
inactive: dose: 100.0 mg/kg/injection, schedule: Q04DX002 (ip), vehicle: saline 100 % of control | dose: 200.0 mg/kg/injection, schedule: Q04DX002 (ip), vehicle: saline 105 % of control | dose: 400.0 mg/kg/injection, schedule: Q04DX002 (ip), vehicle: saline 107 % of control

Cc1cccc(N=C(C2=C(O)c3ccccc3C2=O)c2ccccc2)c1
inactive: dose: 25.0 mg/kg/injection, schedule: Q04DX002 (ip), vehicle: saline with Tween-80 100 % of control | dose: 50.0 mg/kg/injection, schedule: Q04DX002 (ip), vehicle: saline with Tween-80 97 % of control | dose: 100.0 mg/kg/injection, schedule: Q04DX002 (ip), vehicle: saline with Tween-80 98 % of control | dose: 200.0 mg/kg/injection, schedule: Q04DX002 (ip), vehicle: saline with Tween-80 92 % of control | dose: 400.0 mg/kg/injection, schedule: Q04DX002 (ip), vehicle: saline with Tween-80 97 % of control

O=C1CSC(c2ccccc2Cl)N1c1n[nH]c(=S)s1 (stereo not drawn)
inactive: dose: 100.0 mg/kg/injection, schedule: Q04DX002 (ip), vehicle: Klucel (hydroxypropylcellulose) (HPC) 98 % of control | dose: 200.0 mg/kg/injection, schedule: Q04DX002 (ip), vehicle: Klucel (hydroxypropylcellulose) (HPC) 100 % of control | dose: 400.0 mg/kg/injection, schedule: Q04DX002 (ip), vehicle: Klucel (hydroxypropylcellulose) (HPC) 97 % of control

CC1(C)OC2CCC3OC(=O)C(C)(Cl)C3C2O1 (stereo not drawn)
inactive: dose: 12.5 mg/kg/injection, schedule: Q01DX009 (ip), vehicle: other 116 % of control | dose: 25.0 mg/kg/injection, schedule: Q01DX009 (ip), vehicle: other 107 % of control | dose: 50.0 mg/kg/injection, schedule: Q01DX009 (ip), vehicle: other 99 % of control | dose: 100.0 mg/kg/injection, schedule: Q01DX009 (ip), vehicle: other 116 % of control

S=C(Nc1ccccc1)SCc1ccc(Cl)cc1
inactive: [11] 104 % of control | [12] 103 % of control | [13] 108 % of control

CC(=O)CS(C)(=O)=O
inactive: dose: 25.0 mg/kg/injection, schedule: Q01DX009 (ip), vehicle: saline 103 % of control | [11] 102 % of control | [12] 101 % of control | [13] 98 % of control

CNc1nc2c(C)ccc3[nH]c(NC)nc3c-2n1
inactive: dose: 8.0 mg/kg/injection, schedule: Q01DX005 (ip), vehicle: Klucel (hydroxypropylcellulose) (HPC) 95 % of control | dose: 16.0 mg/kg/injection, schedule: Q01DX005 (ip), vehicle: Klucel (hydroxypropylcellulose) (HPC) 100 % of control | dose: 32.0 mg/kg/injection, schedule: Q01DX005 (ip), vehicle: Klucel (hydroxypropylcellulose) (HPC) 90 % of control | dose: 64.0 mg/kg/injection, schedule: Q01DX005 (ip), vehicle: Klucel (hydroxypropylcellulose) (HPC) 88 % of control

COc1ccc(/C=N\O)cc1OC
inactive: dose: 100.0 mg/kg/injection, schedule: Q04DX003 (ip), vehicle: saline with Tween-80 100 % of control | dose: 200.0 mg/kg/injection, schedule: Q04DX003 (ip), vehicle: saline with Tween-80 100 % of control | dose: 400.0 mg/kg/injection, schedule: Q04DX003 (ip), vehicle: saline with Tween-80 100 % of control

COc1ccccc1C1C(C#N)C(=O)NC(=O)C1C#N (stereo not drawn)
inactive: dose: 50.0 mg/kg/injection, schedule: Q01DX009 (ip), vehicle: Klucel (hydroxypropylcellulose) (HPC) 113 % of control | dose: 100.0 mg/kg/injection, schedule: Q01DX009 (ip), vehicle: Klucel (hydroxypropylcellulose) (HPC) 105 % of control | dose: 200.0 mg/kg/injection, schedule: Q01DX009 (ip), vehicle: Klucel (hydroxypropylcellulose) (HPC) 105 % of control

COc1ccc(NC2=C(Cl)C(=O)C(Nc3ccc(OC)cc3)=C(Cl)C2=O)cc1
inactive: [9] 95 % of control | [10] 97 % of control | dose: 200.0 mg/kg/injection, schedule: Q01DX005 (ip), vehicle: saline with Tween-80 98 % of control
